# Laboratory results: ChEMBL document CHEMBL5506032, “Discovery of 2,6-Naphthyridine Analogues as Selective FGFR4 Inhibitors for Hepatocellular Carcinoma” (J Med Chem, 2024)
# The source made the active and inactive calls. The calls are words filed in the database; no cut-off is given here.
# Experiments:
# [1] = tested on: Huh-7; assay: Antiproliferative activity against FGFR4 overexpressing human Huh-7 cells assessed as inhibition of cell growth by SRB assay
# [2] = Antitumor activity against human Hep 3B-Luc cells xenografted in female BALB/c nude mouse assessed as survival at 100 mg/kg, po administered once daily for 7 weeks and measured after 119 days relative to control; format: functional; details: 2856 h, time 119 day
# [3] = Cmax in ICR mouse at 100 mg/kg, po measured after 24 hrs by LC-MS/MS analysis; format: ADME, organism-based; details: in vivo
# [4] = Oral bioavailability in ICR mouse at 100 mg/kg measured after 24 hrs by LC-MS/MS analysis; format: ADME, organism-based; details: in vivo
# [5] = tested on: Hep 3B-Luc; assay: Antitumor activity against human Hep 3B-Luc cells xenografted in female BALB/c nude mouse assessed as reduction in liver tumor volume at 100 mg/kg, po administered once daily for 7 weeks and measured within 35 days by bioluminescence imaging; format: functional, organism-based; details: time <= 35.0 day
# [6] = AUC (0 to 24 hrs) in ICR mouse at 200 mg/kg, po measured after 48 hrs by LC-MS/MS analysis; format: ADME, organism-based; details: in vivo
# [7] = Oral bioavailability in ICR mouse at 50 mg/kg measured after 24 hrs by LC-MS/MS analysis; format: ADME, organism-based; details: in vivo
# [8] = Tmax in ICR mouse at 200 mg/kg, po measured after 48 hrs by LC-MS/MS analysis; format: ADME, organism-based; details: in vivo
# [9] = tested on: RT-112; assay: Growth inhibition of FGFR3 overexpressing human RT-112 cells by SRB assay; format: functional
# [10] = Half-life in ICR mouse at 100 mg/kg, po measured after 24 hrs by LC-MS/MS analysis; format: ADME, organism-based; details: in vivo
# [11] = tested on: Hep 3B2; assay: Growth inhibition of FGF19 amplified and FGFR4 overexpressing human Hep3B cells by SRB assay; format: functional
# [12] = Cmax in ICR mouse at 5 mg/kg, iv by LC-MS/MS analysis; format: ADME, organism-based; details: in vivo
# [13] = tested on: SNU-387; assay: Growth inhibition of human SNU-387 cells by SRB assay; format: functional
# [14] = AUC (0 to 24 hrs) in ICR mouse at 5 mg/kg, iv by LC-MS/MS analysis; format: ADME, organism-based; details: in vivo
# [15] = Cmax in ICR mouse at 200 mg/kg, po measured after 48 hrs by LC-MS/MS analysis; format: ADME, organism-based; details: in vivo
# [16] = molecular target: T1, Fibroblast growth factor receptor 1 (Homo sapiens, UniProt P11362); assay: Inhibition of FGFR1 (unknown origin) by Z'-LYTE kinase assay
# Target sequence in this assay (P11362 whole entry): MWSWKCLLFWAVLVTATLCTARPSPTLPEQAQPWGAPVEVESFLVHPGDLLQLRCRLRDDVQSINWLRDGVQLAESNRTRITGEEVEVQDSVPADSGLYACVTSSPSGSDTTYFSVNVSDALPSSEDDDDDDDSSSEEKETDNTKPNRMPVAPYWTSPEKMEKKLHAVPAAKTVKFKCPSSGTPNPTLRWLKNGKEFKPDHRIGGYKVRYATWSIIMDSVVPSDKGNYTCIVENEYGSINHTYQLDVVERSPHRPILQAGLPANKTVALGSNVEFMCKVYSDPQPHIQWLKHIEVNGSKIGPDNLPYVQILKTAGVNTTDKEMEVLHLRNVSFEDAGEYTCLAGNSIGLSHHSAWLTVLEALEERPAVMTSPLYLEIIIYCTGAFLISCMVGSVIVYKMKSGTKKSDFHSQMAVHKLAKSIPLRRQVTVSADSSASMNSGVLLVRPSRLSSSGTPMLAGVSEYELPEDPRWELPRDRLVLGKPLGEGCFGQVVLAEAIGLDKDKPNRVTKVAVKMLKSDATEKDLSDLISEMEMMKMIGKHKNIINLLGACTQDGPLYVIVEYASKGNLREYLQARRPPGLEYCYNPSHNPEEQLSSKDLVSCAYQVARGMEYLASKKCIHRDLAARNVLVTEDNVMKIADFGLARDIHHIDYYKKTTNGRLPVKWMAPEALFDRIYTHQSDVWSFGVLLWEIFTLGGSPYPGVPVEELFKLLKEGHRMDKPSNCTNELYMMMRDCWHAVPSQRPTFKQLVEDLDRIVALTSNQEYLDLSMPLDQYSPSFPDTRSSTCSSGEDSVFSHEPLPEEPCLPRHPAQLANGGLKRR
# [17] = tested on: HepG2; assay: Growth inhibition of human HepG2 cells by SRB assay; format: functional
# [18] = Tmax in ICR mouse at 100 mg/kg, po measured after 24 hrs by LC-MS/MS analysis; format: ADME, organism-based; details: in vivo
# [19] = Toxicity in female BALB/c nude mouse xenografted with human Huh-7 cells assessed as effect on body weight at 100 mg/kg, po administered twice daily for 15 days; format: organism-based; details: in vivo, 360 h, time 15 day
# [20] = tested on: Hep 3B2; assay: Antitumor activity against human Hep3B cells xenografted in female BALB/c nude ectopic mouse assessed as reduction in tumor volume at 100 mg/kg, po administered twice daily for 15 days; format: functional, organism-based; details: time 15.0 day
# [21] = Cmax in ICR mouse at 50 mg/kg, po measured after 24 hrs by LC-MS/MS analysis; format: ADME, organism-based; details: in vivo
# [22] = Tmax in ICR mouse at 50 mg/kg, po measured after 24 hrs by LC-MS/MS analysis; format: ADME, organism-based; details: in vivo
# [23] = Antiproliferative activity against FGF19 amplified human JHH7 cells assessed as inhibition of cell growth by SRB assay
# [24] = molecular target: T1, Fibroblast growth factor receptor 1; assay: Inhibition of FGFR1 (unknown origin) at 1 uM relative to control
# Target sequence in this assay (P11362 22-822 limits assumed): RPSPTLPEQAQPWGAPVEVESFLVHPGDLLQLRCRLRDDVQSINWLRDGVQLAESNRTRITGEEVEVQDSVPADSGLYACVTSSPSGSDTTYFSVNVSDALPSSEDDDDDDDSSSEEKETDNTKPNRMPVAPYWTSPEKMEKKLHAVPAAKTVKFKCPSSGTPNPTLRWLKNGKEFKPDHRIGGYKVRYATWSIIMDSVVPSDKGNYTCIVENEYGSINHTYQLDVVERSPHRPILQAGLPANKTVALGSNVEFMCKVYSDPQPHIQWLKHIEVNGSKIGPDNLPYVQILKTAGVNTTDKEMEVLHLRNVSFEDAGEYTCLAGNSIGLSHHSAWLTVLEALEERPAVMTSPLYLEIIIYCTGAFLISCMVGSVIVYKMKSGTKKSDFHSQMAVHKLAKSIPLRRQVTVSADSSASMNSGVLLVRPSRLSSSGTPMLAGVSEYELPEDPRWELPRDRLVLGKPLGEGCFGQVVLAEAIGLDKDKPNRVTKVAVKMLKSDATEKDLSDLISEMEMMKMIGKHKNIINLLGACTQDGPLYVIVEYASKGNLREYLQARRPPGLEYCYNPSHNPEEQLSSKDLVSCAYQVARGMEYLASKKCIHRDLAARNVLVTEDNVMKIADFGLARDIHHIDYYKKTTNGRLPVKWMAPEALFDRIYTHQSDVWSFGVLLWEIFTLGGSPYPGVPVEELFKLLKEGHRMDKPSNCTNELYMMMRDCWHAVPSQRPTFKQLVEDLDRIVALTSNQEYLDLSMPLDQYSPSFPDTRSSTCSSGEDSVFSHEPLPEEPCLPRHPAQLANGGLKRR
# [25] = Half-life in ICR mouse at 50 mg/kg, po measured after 24 hrs by LC-MS/MS analysis; format: ADME, organism-based; details: in vivo
# [26] = tested on: Huh-7; assay: Growth inhibition of FGF19 amplified and FGFR4 overexpressing human Huh-7 cells by SRB assay; format: functional
# [27] = Growth inhibition of FGF19 amplified and FGFR4 overexpressing human JHH7 cells by SRB assay; format: functional
# [28] = molecular target: Fibroblast growth factor receptor 3 (Homo sapiens, UniProt P22607); assay: Inhibition of FGFR3 (unknown origin) by Z'-LYTE kinase assay
# [29] = molecular target: T2, Fibroblast growth factor receptor 2 (Homo sapiens, UniProt P21802); assay: Inhibition of FGFR2 (unknown origin) by Z'-LYTE kinase assay
# Target sequence in this assay (P21802 whole entry): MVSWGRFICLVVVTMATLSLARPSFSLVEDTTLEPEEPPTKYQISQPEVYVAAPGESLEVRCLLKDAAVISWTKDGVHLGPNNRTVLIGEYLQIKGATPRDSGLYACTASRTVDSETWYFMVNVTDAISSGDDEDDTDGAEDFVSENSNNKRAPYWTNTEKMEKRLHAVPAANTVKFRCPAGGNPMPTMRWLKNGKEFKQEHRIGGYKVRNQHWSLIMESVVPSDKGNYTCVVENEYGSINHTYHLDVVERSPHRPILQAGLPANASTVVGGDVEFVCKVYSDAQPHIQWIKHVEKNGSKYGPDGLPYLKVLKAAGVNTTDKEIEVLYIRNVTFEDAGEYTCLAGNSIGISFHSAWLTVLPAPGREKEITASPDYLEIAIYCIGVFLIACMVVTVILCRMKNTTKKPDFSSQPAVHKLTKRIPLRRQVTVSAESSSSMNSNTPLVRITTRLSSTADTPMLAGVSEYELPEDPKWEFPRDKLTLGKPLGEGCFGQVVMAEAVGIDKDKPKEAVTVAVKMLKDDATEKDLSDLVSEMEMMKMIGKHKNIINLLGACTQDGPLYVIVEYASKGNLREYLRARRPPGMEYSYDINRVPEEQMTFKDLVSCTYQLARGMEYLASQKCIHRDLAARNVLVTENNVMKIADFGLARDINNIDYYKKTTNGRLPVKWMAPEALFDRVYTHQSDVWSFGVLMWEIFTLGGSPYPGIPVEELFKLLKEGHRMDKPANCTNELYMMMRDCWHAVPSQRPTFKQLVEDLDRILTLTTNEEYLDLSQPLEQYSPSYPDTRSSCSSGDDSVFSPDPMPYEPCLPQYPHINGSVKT
# [30] = tested on: Huh-7; assay: Antitumor activity against human Huh-7 cells xenografted in female BALB/c nude mouse assessed as reduction in tumor volume at 100 mg/kg, po administered twice daily for 15 days; format: functional, organism-based; details: time 15.0 day
# [31] = Toxicity in female BALB/c nude mouse xenografted with human Huh-7 cells assessed as clinical signs at 100 mg/kg, po administered twice daily for 15 days; format: organism-based; details: in vivo, 360 h, time 15 day
# [32] = tested on: Hep 3B2; assay: Antiproliferative activity against FGF19 amplified human Hep3B cells assessed as inhibition of cell growth by SRB assay
# [33] = tested on: Hep 3B-Luc; assay: Antitumor activity against human Hep 3B-Luc cells xenografted in female BALB/c nude mouse assessed as reduction in liver tumor volume at 100 mg/kg, po administered once daily for 7 weeks and measured after 119 days by bioluminescence imaging; format: functional, organism-based; details: time 119.0 day
# [34] = Half-life in ICR mouse at 5 mg/kg, iv by LC-MS/MS analysis; format: ADME, organism-based; details: in vivo
# [35] = Growth inhibition of human HS27 cells by SRB assay; format: toxicity, cell-based
# [36] = tested on: PLC-PRF-5; assay: Growth inhibition of human PLCPRF5 cells by SRB assay; format: functional
# [37] = Half-life in ICR mouse at 200 mg/kg, po measured after 48 hrs by LC-MS/MS analysis; format: ADME, organism-based; details: in vivo
# [38] = AUC (0 to 24 hrs) in ICR mouse at 50 mg/kg, po measured after 24 hrs by LC-MS/MS analysis; format: ADME, organism-based; details: in vivo
# [39] = Oral bioavailability in ICR mouse at 200 mg/kg measured after 48 hrs by LC-MS/MS analysis; format: ADME, organism-based; details: in vivo
# [40] = AUC (0 to 24 hrs) in ICR mouse at 100 mg/kg, po measured after 24 hrs by LC-MS/MS analysis; format: ADME, organism-based; details: in vivo
# [41] = molecular target: T2, Fibroblast growth factor receptor 2; assay: Inhibition of FGFR2 (unknown origin) at 1 uM relative to control
# Target sequence in this assay (P21802 22-821 limits assumed): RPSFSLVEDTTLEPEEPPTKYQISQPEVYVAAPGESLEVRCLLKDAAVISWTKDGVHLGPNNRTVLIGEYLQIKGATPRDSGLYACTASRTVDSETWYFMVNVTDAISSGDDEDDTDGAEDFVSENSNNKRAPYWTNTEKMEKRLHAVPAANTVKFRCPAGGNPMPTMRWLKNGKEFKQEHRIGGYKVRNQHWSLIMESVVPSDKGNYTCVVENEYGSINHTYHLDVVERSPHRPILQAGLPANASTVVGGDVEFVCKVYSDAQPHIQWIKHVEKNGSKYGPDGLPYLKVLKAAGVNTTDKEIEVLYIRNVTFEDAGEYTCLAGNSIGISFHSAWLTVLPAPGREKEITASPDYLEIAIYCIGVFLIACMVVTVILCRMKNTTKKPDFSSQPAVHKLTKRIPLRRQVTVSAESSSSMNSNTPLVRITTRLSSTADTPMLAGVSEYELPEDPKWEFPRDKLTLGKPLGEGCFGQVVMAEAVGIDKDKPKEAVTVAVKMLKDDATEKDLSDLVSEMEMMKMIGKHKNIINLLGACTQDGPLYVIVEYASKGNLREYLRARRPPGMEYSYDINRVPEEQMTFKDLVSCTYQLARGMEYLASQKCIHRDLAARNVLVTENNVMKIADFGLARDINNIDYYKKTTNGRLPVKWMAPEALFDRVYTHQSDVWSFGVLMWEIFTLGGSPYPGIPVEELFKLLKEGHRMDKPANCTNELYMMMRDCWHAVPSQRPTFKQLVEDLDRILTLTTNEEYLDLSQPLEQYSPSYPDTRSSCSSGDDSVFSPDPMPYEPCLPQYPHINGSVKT
# [42] = molecular target: Fibroblast growth factor receptor 4 (Homo sapiens, UniProt P22455); assay: Inhibition of FGFR4 (unknown origin) by Z'-LYTE kinase assay
# Chain of Fibroblast growth factor receptor 4 (P22455 whole entry): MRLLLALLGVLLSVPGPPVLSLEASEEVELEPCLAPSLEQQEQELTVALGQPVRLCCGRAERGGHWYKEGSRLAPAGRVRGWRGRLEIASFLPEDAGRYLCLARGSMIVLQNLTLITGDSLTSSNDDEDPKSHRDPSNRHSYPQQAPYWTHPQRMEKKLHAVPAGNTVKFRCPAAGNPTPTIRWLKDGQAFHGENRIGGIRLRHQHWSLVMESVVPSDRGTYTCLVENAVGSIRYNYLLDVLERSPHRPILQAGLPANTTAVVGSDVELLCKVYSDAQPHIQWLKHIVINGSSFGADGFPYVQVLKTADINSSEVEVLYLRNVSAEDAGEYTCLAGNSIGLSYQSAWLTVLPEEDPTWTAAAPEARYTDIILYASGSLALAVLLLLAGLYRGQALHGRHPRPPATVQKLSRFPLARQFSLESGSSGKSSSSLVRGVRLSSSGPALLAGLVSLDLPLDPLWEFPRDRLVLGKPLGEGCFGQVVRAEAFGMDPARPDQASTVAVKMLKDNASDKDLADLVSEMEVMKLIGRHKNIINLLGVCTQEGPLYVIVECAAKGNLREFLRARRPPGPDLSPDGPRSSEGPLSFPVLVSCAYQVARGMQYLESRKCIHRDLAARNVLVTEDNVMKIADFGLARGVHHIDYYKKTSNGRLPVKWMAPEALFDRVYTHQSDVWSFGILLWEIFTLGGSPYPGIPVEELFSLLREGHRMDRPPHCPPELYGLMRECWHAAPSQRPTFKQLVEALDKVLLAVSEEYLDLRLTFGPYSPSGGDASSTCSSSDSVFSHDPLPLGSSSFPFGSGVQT
# Chain of Fibroblast growth factor receptor 3 (P22607 whole entry): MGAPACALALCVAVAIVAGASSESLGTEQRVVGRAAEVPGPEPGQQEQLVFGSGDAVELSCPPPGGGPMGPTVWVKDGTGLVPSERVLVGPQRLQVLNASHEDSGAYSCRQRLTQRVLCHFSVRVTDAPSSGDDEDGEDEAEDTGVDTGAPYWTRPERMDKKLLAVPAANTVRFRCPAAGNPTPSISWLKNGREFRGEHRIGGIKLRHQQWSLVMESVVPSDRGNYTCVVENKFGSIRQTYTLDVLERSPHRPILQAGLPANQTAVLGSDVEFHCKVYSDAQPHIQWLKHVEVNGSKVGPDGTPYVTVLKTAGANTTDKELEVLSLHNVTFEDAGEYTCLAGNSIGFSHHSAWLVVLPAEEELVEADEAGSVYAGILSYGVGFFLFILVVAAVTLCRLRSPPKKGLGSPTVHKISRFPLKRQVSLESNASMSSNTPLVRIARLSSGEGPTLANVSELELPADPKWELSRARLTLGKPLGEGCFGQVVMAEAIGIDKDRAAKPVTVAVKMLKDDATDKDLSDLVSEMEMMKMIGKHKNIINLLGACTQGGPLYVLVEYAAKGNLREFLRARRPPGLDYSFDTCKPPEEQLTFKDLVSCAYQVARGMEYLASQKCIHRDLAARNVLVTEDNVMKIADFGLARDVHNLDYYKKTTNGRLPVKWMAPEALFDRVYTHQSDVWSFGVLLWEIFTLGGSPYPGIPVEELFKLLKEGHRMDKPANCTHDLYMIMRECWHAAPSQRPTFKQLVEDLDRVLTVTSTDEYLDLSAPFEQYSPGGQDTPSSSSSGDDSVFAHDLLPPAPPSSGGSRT
smiles,measurement,setting,value
C=CC(=O)Nc1cccc(C)c1Nc1cc2cnc(-c3c(Cl)c(OC)cc(OC)c3Cl)cc2cn1,IC50,[1],212 nM
C=CC(=O)Nc1ccccc1Nc1cc2c(C)nc(-c3c(Cl)c(OC)cc(OC)c3Cl)cc2cn1,survival at 100 mg/kg,[2],> 90%
same,Cmax,[3],24600 ng/mL
same,bioavailability,[4],61.9%
same,IC50,[1],19 nM
same,Activity,[5],Active
same,AUC(0-t) at 48 h,[6],102000 ng·h/mL
same,bioavailability,[7],56.8%
same,Tmax,[8],1 h
same,GI50,[9],151 nM
same,half-life,[10],3.9 h
same,GI50,[11],16 nM
same,Cmax,[12],8140 ng/mL
same,GI50,[13],251 nM
same,AUC(0-t),[14],4810 ng·h/mL
same,Cmax,[15],40700 ng/mL
same,IC50,[16],1260 nM
same,GI50,[17],335 nM
same,Tmax,[18],0.5 h
same,Activity,[19],Non-Toxic
same,Activity,[20],Active
same,Cmax,[21],11200 ng/mL
same,Tmax,[22],1 h
same,IC50,[23],33 nM
same,inhibition,[24],> 85%
same,half-life,[25],4.4 h
same,GI50,[26],16 nM
same,GI50,[27],16 nM
same,IC50,[28],> 10000 nM
same,IC50,[29],3270 nM
same,Activity,[30],Active
same,Activity,[31],Non-Toxic
same,IC50,[32],16 nM
same,Activity,[33],Active
same,half-life,[34],1.7 h
same,GI50,[35],913 nM
same,GI50,[36],598 nM
same,half-life,[37],8.6 h
same,AUC(0-t) at 24 h,[38],27300 ng·h/mL
same,bioavailability,[39],53.2%
same,AUC(0-t) at 24 h,[40],59500 ng·h/mL
same,inhibition,[41],> 85%
C=CC(=O)Nc1cc(C)ccc1Nc1cc2cnc(-c3c(Cl)c(OC)cc(OC)c3Cl)cc2cn1,IC50,[1],125 nM
C=CC(=O)Nc1ccc(C)cc1Nc1cc2cnc(-c3c(Cl)c(OC)cc(OC)c3Cl)cc2cn1,IC50,[1],37 nM
C=CC(=O)Nc1ccccc1Nc1cc2c(-c3ccc[nH]3)nc(-c3c(Cl)c(OC)cc(OC)c3Cl)cc2cn1,IC50,[1],61 nM
C=CC(=O)Nc1cccc(F)c1Nc1cc2cnc(-c3c(F)c(OC)cc(OC)c3F)cc2cn1,IC50,[1],140 nM
C=CC(=O)Nc1ccccc1Nc1cc2cnc(-c3c(F)c(OC)cc(OC)c3F)cc2cn1,IC50,[1],25 nM
C=CC(=O)Nc1cccc(F)c1Nc1cc2cnc(-c3c(Cl)c(OC)cc(OC)c3Cl)cc2cn1,IC50,[1],220 nM
C=CC(=O)Nc1cc(N2CCOCC2)ccc1Nc1cc2cnc(-c3c(Cl)c(OC)cc(OC)c3Cl)cc2cn1,IC50,[1],80 nM
C=CC(=O)Nc1ccccc1Nc1cc2cnc(-c3c(Cl)c(OC)cc(OC)c3Cl)cc2cn1,IC50,[1],23 nM
same,IC50,[16],506 nM
same,IC50,[28],4630 nM
same,IC50,[29],281 nM
C=CC(=O)Nc1ccc(N2CCN(CC)CC2)c(F)c1Nc1cc2cnc(-c3c(F)c(OC)cc(OC)c3F)cc2cn1,IC50,[1],137 nM
C=CC(=O)Nc1ccccc1Nc1cc2c(-c3ccco3)nc(-c3c(Cl)c(OC)cc(OC)c3Cl)cc2cn1,IC50,[1],110 nM
C=CC(=O)Nc1cccc(C)c1Nc1ncc2cc(-c3c(Cl)c(OC)cc(OC)c3Cl)ccc2n1,IC50,[1],191 nM
C=CC(=O)Nc1cc2c(cc1Nc1cc3cnc(-c4c(Cl)c(OC)cc(OC)c4Cl)cc3cn1)CCC2,IC50,[1],113 nM
C=CC(=O)Nc1ccccc1Nc1cc2c(CC)nc(-c3c(Cl)c(OC)cc(OC)c3Cl)cc2cn1,IC50,[1],36 nM
C=CC(=O)Nc1ccccc1Nc1cc2c(C3CC3)nc(-c3c(Cl)c(OC)cc(OC)c3Cl)cc2cn1,IC50,[1],67 nM
C=CC(=O)Nc1ccccc1Nc1cc2c(-c3cccnc3)nc(-c3c(Cl)c(OC)cc(OC)c3Cl)cc2cn1,IC50,[1],68 nM
C=CC(=O)Nc1ccccc1Nc1cc2c(-c3ccccc3)nc(-c3c(Cl)c(OC)cc(OC)c3Cl)cc2cn1,IC50,[1],69 nM
C=CC(=O)Nc1ccccc1Nc1cc2c(-c3cnn(C)c3)nc(-c3c(Cl)c(OC)cc(OC)c3Cl)cc2cn1,IC50,[1],50 nM
C=CC(=O)N[C@H]1CCOC[C@H]1Nc1ncc2cc(-c3c(Cl)c(OC)cc(OC)c3Cl)ccc2n1 [FISOGATINIB],IC50,[1],81 nM
same,IC50,[16],1840 nM
same,Activity,[19],Non-Toxic
same,IC50,[23],161 nM
same,IC50,[42],53 nM
same,IC50,[28],> 10000 nM
same,IC50,[29],2500 nM
same,Activity,[30],Active
same,Activity,[31],Non-Toxic
same,IC50,[32],122 nM
